The record followed here is ChEMBL document CHEMBL1201862, “PubChem BioAssay data set” (2004).

The GI50 is the concentration that inhibits growth by half.

Some test systems named below: UACC-257; MCF7; EKVX; NCI-H226; PC-3; SK-OV-3; DU-145; SW-620; OVCAR-5; K562; KM12; Hs-578T; TK-10; BT-549; OVCAR-3; SF-268; SNB-19; UACC-62; SK-MEL-5; HOP-92.
What all share (experiment): DTP human tumour cell line panel, 48 h

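Method: 48-hour compound exposure of cells in 96-well plates, five concentrations, linear interpolation of endpoints. At the GI50, growth is halved.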 Activity calls are given as the source filed them. No stated cut-off is given here; in the data, active = GI50 up to about 1.1 µM and inactive = higher. Where only a bound is given, the exact number is not on record here.

Take `Nc1cc(O)c2c(c1O)C(=O)C=CC2=O`: the GI50 was 14.5 µM (inactive) with UACC-257; 7.13 µM (inactive) with MCF7; 17.9 µM (inactive) with EKVX; 67.1 µM (inactive) in the assay with NCI-H226; 19.5 µM (inactive) in the assay with PC-3; 47 µM (inactive) in the assay on SK-OV-3. Further, the GI50 in the assay on DU-145 is 18.2 µM (inactive); in the assay on SW-620, 4.33 µM (inactive); in the assay with OVCAR-5, 20.8 µM (inactive); with K562 it was 5.78 µM (inactive); in the assay with KM12, 19.6 µM (inactive); in the assay with Hs-578T, 26.5 µM (inactive). Further, the GI50 is 26.6 µM (inactive) with TK-10; 16.7 µM (inactive) with BT-549; 2.64 µM (inactive) with OVCAR-3; 22.9 µM (inactive) with SF-268; 23.8 µM (inactive) with SNB-19; 11.4 µM (inactive) with UACC-62. In addition, the GI50 is 8.26 µM (inactive) in the assay with SK-MEL-5 and 14.8 µM (inactive) in the assay with HOP-92.
As for `NNC1=NC(=O)NC(=O)C1`, the GI50 in the assay on UACC-257, with MCF7, in the assay on EKVX, with NCI-H226, with PC-3 and with SK-OV-3 was > 100 µM (inactive) in each case. Further, the GI50 in the assay on DU-145, with SW-620, in the assay on OVCAR-5, in the assay on K562, in the assay with KM12 and with Hs-578T was > 100 µM (inactive) each time. Besides, the GI50 in the assay with TK-10, with BT-549, in the assay with OVCAR-3, with SF-268, with SNB-19 and with UACC-62 was > 100 µM (inactive) throughout. The GI50 with SK-MEL-5 is > 100 µM (inactive); in the assay on HOP-92, 66.4 µM (inactive).
For the compound `CC(=O)n1nc(-c2nc3ccccc3nc2Cl)cc1Cl`, the GI50 in the assay with UACC-257 is > 68.1 µM (inactive); in the assay with MCF7 it was 26.9 µM (inactive); in the assay on EKVX, 12.5 µM (inactive); in the assay with NCI-H226, 10.3 µM (inactive); with PC-3 it was 30.9 µM (inactive); with SK-OV-3 it was 20.5 µM (inactive). Further, the GI50 in the assay on DU-145 is 20.6 µM (inactive); in the assay on SW-620 it was 2.88 µM (inactive); in the assay on OVCAR-5, 34.7 µM (inactive); in the assay on K562, 3.61 µM (inactive); with KM12, 19.4 µM (inactive); with Hs-578T it was 34.5 µM (inactive). For the same compound, the GI50 with TK-10 is 37.4 µM (inactive); in the assay on BT-549 it was 5.89 µM (inactive); in the assay on OVCAR-3 it was 19.8 µM (inactive); in the assay on SF-268 it was 38.6 µM (inactive); in the assay on SNB-19 it was 30.5 µM (inactive); in the assay with UACC-62 it was 27.2 µM (inactive). Besides, the GI50 was 4.68 µM (inactive) with SK-MEL-5 and > 69.8 µM (inactive) in the assay with HOP-92.
As for `CCCCS(=O)(=O)CCC(N)P(=O)(O)O` (stereo not given), the GI50 in the assay on UACC-257, with MCF7, with EKVX, in the assay on NCI-H226, with PC-3 and with SK-OV-3 was > 100 µM (inactive) each time. Also, the GI50 with DU-145, in the assay with SW-620, with OVCAR-5, in the assay on K562, in the assay with KM12 and in the assay on Hs-578T was > 100 µM (inactive) throughout. Also, the GI50 in the assay with TK-10, in the assay with BT-549, in the assay on OVCAR-3, in the assay with SF-268, with SNB-19 and in the assay with UACC-62 was > 100 µM (inactive) each time. Also, the GI50 in the assay on SK-MEL-5 and in the assay with HOP-92 was > 100 µM (inactive) in each case.
With `O=C(NC(Nc1ccc(F)cc1)(C(F)(F)F)C(F)(F)F)C(C(F)(F)F)C(F)(F)F`, the GI50 in the assay on UACC-257 was 3.3 µM (inactive); in the assay on MCF7 it was 16.7 µM (inactive); with EKVX, 24.7 µM (inactive); with NCI-H226, 50.5 µM (inactive); in the assay on PC-3, 4.91 µM (inactive); with SK-OV-3, 72.1 µM (inactive). For the same compound, the GI50 in the assay with DU-145 is 9.93 µM (inactive); with SW-620, 1.65 µM (inactive); with OVCAR-5, > 96.6 µM (inactive); in the assay with K562, 0.401 µM (active); in the assay on KM12 it was 0.908 µM (active); in the assay on Hs-578T, 20.4 µM (inactive). Besides, the GI50 was > 24.9 µM (inactive) in the assay with TK-10; 18.7 µM (inactive) in the assay with BT-549; 44.3 µM (inactive) in the assay with OVCAR-3; 49.8 µM (inactive) with SF-268; 48.2 µM (inactive) in the assay on SNB-19; 0.199 µM (active) in the assay with UACC-62. Besides, the figures for the GI50 in the assay on SK-MEL-5 and in the assay with HOP-92 were 1.43 µM (inactive) and 51.3 µM (inactive), respectively.
As for `Cc1cc(C)n2nc3nc(N)c(C#N)c(-c4ccccc4)c3c2n1`, the GI50 in the assay on UACC-257 is > 100 µM (inactive); with MCF7 it was > 100 µM (inactive); in the assay on EKVX, > 100 µM (inactive); with NCI-H226, > 78.5 µM (inactive); in the assay on PC-3, > 100 µM (inactive); with SK-OV-3, > 100 µM (inactive). Also, the GI50 with DU-145, in the assay with SW-620, with OVCAR-5, with K562, in the assay with KM12 and with Hs-578T was > 100 µM (inactive) throughout. For the same compound, the GI50 in the assay with TK-10 was > 100 µM (inactive); in the assay on BT-549, > 100 µM (inactive); in the assay on OVCAR-3 it was > 73.6 µM (inactive); in the assay on SF-268 it was > 100 µM (inactive); with SNB-19 it was > 100 µM (inactive); with UACC-62, > 100 µM (inactive). In addition, the GI50 with SK-MEL-5 was > 80.2 µM (inactive); in the assay with HOP-92 it was > 100 µM (inactive).
